# Experimental data from article PMC6839509, “Fluorescent probes towards selective cathepsin B detection and visualization in cancer cells and patient samples” (Chemical Science, 2019).
# Square brackets hold non-standard residues; d marks the D form. * marks the point of attachment. ACC = NC(=O)Cc1cc(=O)oc2cc(N*)ccc12; hTyr = N[C@@H](CCc1ccc(O)cc1)C(=O)O; OBn = c1ccc(CO*)cc1
# What was measured:
# [1] = molecular target: T1, cathepsin B in human cancer cell lines (Homo sapiens, UniProt P07858); test: Detection of active cathepsin B in cancer cells using Cy5-labeled MP-CB-2 probe (SDS-PAGE, Western blot); format: cell-based; details: A-431 cells; E-64d 25 μM; 1 μM MP-CB-2
# T1 construct: we were able to label both cathepsin B active forms (single chain 29 kDa, and light chain 6 kDa); endogenous in cells; host or cells: human cancer cell lines (A-431, HCT-116, OVCAR-5, SK-OV-3, MDA-MB-231, U2-OS, PC-3, HeLa and others)
# Protocol: 50 000 cells from fourteen adherent cancer cell lines were seeded into 12-well plates and allowed to attach overnight. In parallel, 50 000 cells from four non-adherent cancer cell lines were placed into 12-well plates and cultured overnight. The next day, MP-CB-2 ABP was added to the cells (1 μM final concentration) and incubated for various times (1, 4, 8, 24 hours). Next, cells were harvested, centrifuged at 500 × g for 5 min, cell pellets were washed with 1× DPBS, cells were centrifuged again at 500 × g for 5 min, and the supernatant was discarded. Finally, cell pellets were solubilized in 100 μL of 1× SDS/DTT and boiled for 5 min, cooled to room temperature and sonicated. Each sample (30 μL) was then subjected to SDS-PAGE analysis (4–12% Bis–Tris Plus 10-well gels, 200 V, 30 min), followed by protein transfer onto the membrane (0.2 μm nitrocellulose membrane, 10 V, 60 min). Ponceau S staining verified equal loading and transfer of proteins. Membranes were blocked in 2.5% BSA in TBS-T for 1 hour at room temperature. […] The images were then analyzed with the Image Studio software.
# 50 000 of selected cancer cells (A-431, HCT-116, OVCAR-5, SK-OV-3, MDA-MB-231, U2-OS, and PC-3) were seeded into 12-well plates and allowed to attach overnight. […] All images were analyzed with Image Studio software.
# [2] = molecular target: T2, human recombinant cathepsin L (Homo sapiens, UniProt P07711); test: Kinetic parameters for inhibition (kobs/I), pseudo-first order; format: biochemical; details: inhibitor at least 5-fold excess over cathepsin, 100 μM ACC substrate, pH 5.5, 37 °C, average of at least triplicate, S.D. below 20%
# T2 construct: with a 100 nM final concentration of each active cathepsin for 30 min; made in house
# Protocol: (§1) All kinetic experiments were performed using a CLARIOStar (BMG LABTECH) plate reader operating in fluorescence kinetic mode using 96-well plates (Corning®, Costar®). ACC-labeled fluorescent substrates were screened at 355 nm (excitation) and 460 nm (emission) wavelengths (gain 650). The cathepsin assay buffer was composed of 100 mM sodium acetate, 100 mM sodium chloride, 10 mM DTT, 1 mM EDTA, pH 5.5. All kinetic studies were performed at 37 °C.
# (§2) The kinetic parameters of inhibition of three irreversible Cy5/Cy7 labeled ABPs were determined for cathepsins B, L, V, S and K, and the inhibition parameters of CA-074 and CA-074Me were determined for cathepsins B and L. The kobs/I were measured under pseudo-first order reaction conditions. Individual cathepsins were mixed with various concentrations of ABP (at least 5-fold excess over cathepsins) and 100 μM ACC fluorescent substrate. Experiments were repeated at least in triplicate, and the results are presented as an average (S.D. were below 20%).
# [3] = molecular target: T3, human recombinant cathepsin B (Homo sapiens, UniProt P07858); test: as above; format: biochemical; details: inhibitor at least 5-fold excess over cathepsin, 100 μM ACC substrate, pH 5.5, 37 °C, average of at least triplicate, S.D. below 20%
# T3 construct: made in house
# Protocol: as §1, §2
# [4] = molecular target: T4, cathepsin B in cancer cell lysates (Homo sapiens, UniProt P07858); test: Cathepsin B activity in cancer cell lysates with Ac-Cha-Leu-Glu(O-Bzl)-Arg-ACC substrate, with inhibitors; format: biochemical; details: lysates of selected cell lines (HeLa, A431, U2-OS, HCT-116, SKOV-3, MDA-MB-231); inhibitor pre-incubated 15 min; 100 μM substrate
# T4 construct: we were able to label both cathepsin B active forms (single chain 29 kDa, and light chain 6 kDa); endogenous in cells; host or cells: human cancer cell lines (A-431, HCT-116, OVCAR-5, SK-OV-3, MDA-MB-231, U2-OS, PC-3, HeLa and others)
# Protocol: Cell pellets from 50 000 cells were re-suspended in cathepsin assay buffer containing 0.5% Triton X-100 for cell lysis. Cell lysis was performed on ice for 30 min. After this time, cells were centrifuged at max speed for 5 min, and the supernatant (supplemented with 10 mM DTT) was used for the kinetic assay. In each assay 100 μM of cathepsin B selective substrate Ac-Cha-Leu-Glu(O-Bzl)-Arg-ACC was used, and the reaction progress was monitored for 30 min. In the experiments with inhibitors, cell lysate was pre-incubated with inhibitor for 15 min, followed by substrate addition and kinetic readout. Each measurement was performed three times and the substrate hydrolysis rate (RFU/s) in control (no inhibitor) was set to 100%, and other values were adjusted accordingly.
# [5] = molecular target: T2, human recombinant cathepsin L; test: Substrate hydrolysis kinetics (kcat, KM, kcat/KM) of ACC-labeled substrates; format: biochemical; details: cathepsin L 250 nM; pH 5.5, 37 °C; Michaelis–Menten; average of at least triplicate, S.D. below 15%
# Protocol: as §1
# (§3) The kinetic parameters for all ACC-labeled substrates were determined using Michaelis–Menten kinetic according to the protocol described by Poreba et al.[41] […] All experiments were performed at least in triplicate and the results are presented as average values (S.D. for all tested substrates was below 15%).
# [6] = molecular target: T5, human recombinant cathepsin K (Homo sapiens, UniProt P43235); test: as above; format: biochemical; details: cathepsin K 320 nM; pH 5.5, 37 °C; Michaelis–Menten; average of at least triplicate, S.D. below 15%
# T5 construct: with a 100 nM final concentration of each active cathepsin for 30 min; made in house
# T5 sequence (P43235 115-329): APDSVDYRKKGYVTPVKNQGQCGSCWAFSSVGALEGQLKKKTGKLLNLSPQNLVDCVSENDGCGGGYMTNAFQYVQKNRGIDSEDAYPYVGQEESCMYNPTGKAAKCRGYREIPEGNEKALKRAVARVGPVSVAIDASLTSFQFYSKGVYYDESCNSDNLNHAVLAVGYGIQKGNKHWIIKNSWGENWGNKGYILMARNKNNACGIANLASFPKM
# Protocol: as §1, §3
# [7] = molecular target: T6, human recombinant cathepsin S (Homo sapiens, UniProt P25774); test: as above; format: biochemical; details: cathepsin S 150 nM; pH 5.5, 37 °C; Michaelis–Menten; average of at least triplicate, S.D. below 15%
# T6 construct: with a 100 nM final concentration of each active cathepsin for 30 min; made in house
# Protocol: as §1, §3
# [8] = molecular target: T7, human recombinant cathepsin V (Homo sapiens, UniProt O60911); test: as above; format: biochemical; details: cathepsin V 200 nM; pH 5.5, 37 °C; Michaelis–Menten; average of at least triplicate, S.D. below 15%
# T7 construct: with a 100 nM final concentration of each active cathepsin for 30 min; made in house
# Protocol: as §1, §3
# [9] = molecular target: T3, human recombinant cathepsin B; test: as above; format: biochemical; details: cathepsin B 0.3–0.5 nM; 100 mM sodium acetate, 100 mM NaCl, 10 mM DTT, 1 mM EDTA, pH 5.5, 37 °C; Michaelis–Menten; average of at least triplicate, S.D. below 15%
# Protocol: as §1, §3
# T2 sequence (P07711 114-333): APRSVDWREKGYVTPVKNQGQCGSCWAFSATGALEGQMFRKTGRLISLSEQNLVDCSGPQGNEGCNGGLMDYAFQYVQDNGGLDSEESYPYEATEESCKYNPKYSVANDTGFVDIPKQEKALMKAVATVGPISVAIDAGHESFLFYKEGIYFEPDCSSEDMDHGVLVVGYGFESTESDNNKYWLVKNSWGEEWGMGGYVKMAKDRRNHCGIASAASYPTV
# T7 sequence (O60911 114-334): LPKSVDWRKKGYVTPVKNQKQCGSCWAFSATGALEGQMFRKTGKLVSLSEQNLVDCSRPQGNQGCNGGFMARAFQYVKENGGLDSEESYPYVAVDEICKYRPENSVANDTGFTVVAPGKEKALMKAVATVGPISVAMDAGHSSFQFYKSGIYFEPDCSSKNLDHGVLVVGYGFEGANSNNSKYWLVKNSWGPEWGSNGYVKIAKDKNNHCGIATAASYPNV
# T6 sequence (P25774 115-331): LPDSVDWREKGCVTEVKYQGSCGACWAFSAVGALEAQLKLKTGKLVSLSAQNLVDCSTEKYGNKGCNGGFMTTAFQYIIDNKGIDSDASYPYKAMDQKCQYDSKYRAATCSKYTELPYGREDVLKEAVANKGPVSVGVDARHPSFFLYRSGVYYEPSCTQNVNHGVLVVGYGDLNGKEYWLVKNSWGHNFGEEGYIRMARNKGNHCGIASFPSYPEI
compound,measurement,setting,value
CCCNC(=O)[C@H]1O[C@@H]1C(=O)N[C@H](C(=O)N1CCC[C@H]1C(=O)OC)[C@@H](C)CC [CA-074Me],prevention of cathepsin B labeling by MP-CB-2 on pre-incubation with inhibitor,[1],completely prevented
same,kobs/I Cat-L,[2],152 M⁻¹ s⁻¹
same,kobs/I Cat-B,[3],92 M⁻¹ s⁻¹
CCCNC(=O)[C@H]1O[C@@H]1C(=O)N[C@H](C(=O)N1CCC[C@H]1C(=O)O)[C@@H](C)CC [CA-074],inhibition of cathepsin B activity in cell lysates,[4],completely depleted its catalytic activity
same,kobs/I Cat-L,[2],n.i.
same,kobs/I Cat-B,[3],"42,000 M^-1s^-1"
CCOC(=O)[C@H]1O[C@@H]1C(=O)N[C@@H](CC(C)C)C(=O)NCCC(C)C [E-64d],prevention of cathepsin B labeling by MP-CB-2 on pre-incubation with inhibitor,[1],completely prevented
Ac-[hTyr]LE(OBn)R-{ACC} (SMILES CC(=O)N[C@@H](CCc1ccc(O)cc1)C(=O)N[C@@H](CC(C)C)C(=O)N[C@@H](CCC(=O)OCc1ccccc1)C(=O)N[C@@H](CCCNC(=N)N)C(=O)Nc1ccc2c(CC(N)=O)cc(=O)oc2c1) [ACC-labeled tetrapeptide substrate],kcat/KM Cat L,[5],"1,170 M^-1s^-1"
same,kcat/KM Cat K,[6],14 M⁻¹ s⁻¹
same,kcat/KM Cat S,[7],41 M⁻¹ s⁻¹
same,kcat/KM Cat V,[8],692 M⁻¹ s⁻¹
same,kcat/KM Cat B,[9],"2,760,000 M^-1s^-1"
Ac-hLeu-Nle-Glu(Chx)-Arg-ACC [ACC-labeled tetrapeptide substrate],kcat/KM Cat L,[5],769 M⁻¹ s⁻¹
same,kcat/KM Cat K,[6],11 M⁻¹ s⁻¹
same,kcat/KM Cat S,[7],25 M⁻¹ s⁻¹
same,kcat/KM Cat V,[8],"1,310 M^-1s^-1"
same,kcat/KM Cat B,[9],"2,600,000 M^-1s^-1"
